What follows are compounds tested against T1, human CRTH2 (Homo sapiens, UniProt Q9Y5Y4) (assay: Human CRTH2 Receptor Binding Assay (whole cell, [3H]ramatroban)). Settings: CHO-K1 cells expressing human CRTH2 and G-alpha16; 20 nM [3H]ramatroban; 1 hour, room temperature.
T1 sequence (Q9Y5Y4 1-395): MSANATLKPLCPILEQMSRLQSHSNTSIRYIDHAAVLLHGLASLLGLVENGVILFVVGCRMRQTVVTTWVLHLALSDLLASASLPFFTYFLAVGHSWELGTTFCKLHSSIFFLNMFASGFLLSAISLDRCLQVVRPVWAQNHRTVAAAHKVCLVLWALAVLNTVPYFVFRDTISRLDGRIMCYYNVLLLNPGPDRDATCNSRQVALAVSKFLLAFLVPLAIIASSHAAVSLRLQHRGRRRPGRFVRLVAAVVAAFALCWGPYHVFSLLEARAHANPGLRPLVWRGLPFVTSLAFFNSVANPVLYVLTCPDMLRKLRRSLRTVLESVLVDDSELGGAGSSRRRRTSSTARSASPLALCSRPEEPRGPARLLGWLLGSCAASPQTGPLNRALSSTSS
Parameters: expressed in transfected cells; host or cells: CHO-K1
Text: A whole cell receptor binding assay using [^3H]ramatroban as the competing radioactive ligand was employed to evaluate the compound binding activity to human CRTH2. The radioactive ligand [^3H]ramatroban was synthesized according to Sugimoto et. al. (Eur. J. Pharmacol. 524, 30-37, 2005) to a specific activity of 42 Ci/mmol.
A cell line stably expressing human CRTH2 was established by transfecting CHO-K1 cells with two mammalian expression vectors that harbored human CRTH2 and G-alpha16 cDNAs, respectively, using FuGene® 6 transfection reagent (from Roche). Stable clones expressing CRTH2 were selected by staining each clone with BM16 (BD Pharmingen™ from BD Biosciences, a division of Becton, Dickinson and Company), which is a rat monoclonal antibody to human CRTH2. The cells were maintained as monolayer cultures in Ham's F-12 medium containing 10% fetal bovine serum, 100 units/mL penicillin, 100 μg/mL streptomycin, 2 mM glutamine, 0.5 mg/mL G418 (geneticin) for CRTH2, and 0.2 mg/mL hygromycin-B (for G-alpha 16). For whole cell receptor binding assay, the monolayer cells were rinsed once with PBS (phosphate buffered saline), dissociated using ethylenediaminetetraacetate (Versene™ EDTA from Lonza Inc.), and suspended in PBS containing 10 mM MgCl2 and 0.06% BSA (bovine serum albumin) at 1.5×10^6 cells/mL.
The binding reactions (0.2 mL) were performed in 96-well plates at room temperature in PBS containing 1.5×10^5 cells, 10 mM MgCl2, 0.06% BSA, 20 nM [^3H]ramatroban, and test compound at various concentrations. After 1 hour of binding reactions, the cells were harvested on GF™/B filter microplates (microtiter plates with embedded glass fiber from Perkin Elmer, Inc.) and washed 5 times with PBS using a Filtermate™ Harvester (a cell harvester that harvests and washes cells from microplates from PerkinElmer, Inc.). The radioactivities bound to the cells were determined using a microplate scintillation counter (TopCount® NXT, from PerkinElmer, Inc.) after adding 50 μL of Microscint™ 20 scintillation fluid (from PerkinElmer, Inc.) to each well of the filter plates. The radioactivity from non-specific binding was determined by replacing compound with 10 μM of 15(R)-15-methyl PGD2 (from Cayman Chemical Company) in the reaction mixtures. The radioactivity bound to the cells in the absence of compound (total binding) was determined by replacing compound with 0.25% of DMSO (dimethyl sulfoxide) in the reaction mixture. Specific binding data were obtained by subtracting the radioactivity of non-specific binding from each binding data.
The IC50 value is defined as the concentration of the tested compound that is required for 50% inhibition of total specific binding. In order to calculate the IC50 value, the percent inhibition data were determined for 7 concentrations for each compound. The percent inhibition for a compound at each concentration was calculated according to the following formula, [1-(specific binding in the presence of compound)/(total specific binding)]×100. The IC50 value was then obtained by fitting the percent inhibition data to a sigmoidal dose-response (4 parameter logistic) model in the XLfit® software Excel add-in program [from ID Business Solutions Ltd., model 205, where F(x)=(A+(B−A)/(1+((C/×)^D)))].

| SMILES | IC50 |
| --- | --- |
| CNS(=O)(=O)c1ccc(C(O)c2cc(CC(=O)O)cc3ccc(F)cc23)cc1 (stereo not shown) [Example 20-1, {6-Fluoro-4-[hydroxy-(4-methylsulfamoyl-phenyl)-methyl]-naphthalen-2-yl}-acetic acid] | 22.1 nM |
| COc1ccc2cc(CC(=O)O)cc(C(=O)c3ccc(S(C)(=O)=O)cc3)c2c1 [Example 2-2, [4-(4-Methanesulfonyl-benzoyl)-6-methoxy-naphthalen-2-yl]-acetic acid] | 26.4 nM |
| Cc1c(CC(=O)O)cc2ccc(F)cc2c1Cc1cccc(C#N)c1 [Example 10-9, [4-(3-Cyano-benzyl)-6-fluoro-3-methyl-naphthalen-2-yl]-acetic acid] | 59.9 nM |
| CN(C)S(=O)(=O)c1ccc(C(=O)c2cc(CC(=O)O)cc3ccccc23)cc1 [Example 1-1, [4-(4-Dimethylsulfamoyl-benzoyl)-naphthalen-2-yl]-acetic acid] | 17.8 nM |
| Cc1ccc(Cc2c(C)c(CC(=O)O)cc3ccc(F)cc23)cc1 [Example 15-1, [6-Fluoro-3-methyl-4-(4-methyl-benzyl)-naphthalen-2-yl]-acetic acid] | 60.1 nM |
| CS(=O)(=O)c1cccc(C(=O)c2cc(CC(=O)O)cc3ccc(F)cc23)c1 [Example 2-10, [6-Fluoro-4-(3-methanesulfonyl-benzoyl)-naphthalen-2-yl]-acetic acid] | 44.8 nM |
| Cc1ccc2cc(CC(=O)O)cc(C(=O)c3ccc(S(C)(=O)=O)cc3)c2c1 [Example 2-28, [4-(4-Methanesulfonyl-benzoyl)-6-methyl-naphthalen-2-yl]-acetic acid] | 21.3 nM |
| COC(=O)c1cccc(Cc2c(C)c(CC(=O)O)cc3ccc(F)cc23)c1 [Example 15-5, 3-(3-Carboxymethyl-7-fluoro-2-methyl-naphthalen-1-ylmethyl)-benzoic acid methyl ester] | 27.6 nM |
| Cc1c(CC(=O)O)cc2ccc(F)cc2c1Cc1ccc(-n2cccn2)cc1 [Example 10-6, [6-Fluoro-3-methyl-4-(4-pyrazol-1-yl-benzyl)-naphthalen-2-yl]-acetic acid] | 26.7 nM |
| Cc1c(CC(=O)O)cc2ccc(F)cc2c1Cc1ccc(C#N)cc1 [Example 10-5, [4-(4-Cyano-benzyl)-6-fluoro-3-methyl-naphthalen-2-yl]-acetic acid] | 12.4 nM |
| Cc1ccc2cc(CC(=O)O)cc(Cc3ccc(S(C)(=O)=O)cc3)c2c1 [Example 8-1, [4-(4-Methanesulfonyl-benzyl)-6-methyl-naphthalen-2-yl]-acetic acid] | 87.8 nM |
| CS(=O)(=O)c1ccc(C(=O)c2cc(CC(=O)O)cc3cc(F)c(F)cc23)cc1 [Example 2-6, [6,7-Difluoro-4-(4-methanesulfonyl-benzoyl)-naphthalen-2-yl]-acetic acid] | 15.5 nM |
| Cc1c(CC(=O)O)cc2ccc(F)cc2c1Cc1cccc(S(=O)(=O)C(F)(F)F)c1 [Example 11-2, [6-Fluoro-3-methyl-4-(3-trifluoromethanesulfonyl-benzyl)-naphthalen-2-yl]-acetic acid] | 68 nM |
| CS(=O)(=O)c1ccc(C(O)c2cc(CC(=O)O)cc3ccccc23)cc1 (stereo not shown) [Example 16-6, {4-[Hydroxy-(4-methanesulfonyl-phenyl)-methyl]-naphthalen-2-yl}-acetic acid] | 35.2 nM |

The next compounds have a lower IC50 than those just listed; values first:

| IC50 | SMILES |
| --- | --- |
| 3.1 nM | CS(=O)(=O)c1ccc(C(F)(F)c2cc(CC(=O)O)cc3ccc(F)cc23)cc1 [Example 17-2, {4-[Difluoro-(4-methanesulfonyl-phenyl)-methyl]-6-fluoro-naphthalen-2-yl}-acetic acid] |
| 6.9 nM | Cc1cc(S(=O)(=O)N(C)C)ccc1C(=O)c1cc(CC(=O)O)cc2ccc(F)cc12 [Example 2-24, [4-(4-Dimethylsulfamoyl-2-methyl-benzoyl)-6-fluoro-naphthalen-2-yl]-acetic acid] |
| 9.5 nM | O=C(O)Cc1cc(C(O)c2ccc(S(=O)(=O)N3CCOCC3)cc2)c2cc(F)ccc2c1 (stereo not shown) [Example 19-2, (6-Fluoro-4-{hydroxy-[4-(morpholine-4-sulfonyl)-phenyl]-methyl}-naphthalen-2-yl)-acetic acid] |
| 5.6 nM | Cc1c(CC(=O)O)cc2ccc(F)cc2c1Cc1ccc(-c2ccc(S(C)(=O)=O)cc2)cc1 [Example 12-1, [6-Fluoro-4-(4′-methanesulfonyl-biphenyl-4-ylmethyl)-3-methyl-naphthalen-2-yl]-acetic acid] |
| 11.2 nM | CCS(=O)(=O)c1ccc(C(=O)c2cc(CC(=O)O)cc3ccc(F)cc23)c(Cl)c1 [Example 1-4, [4-(2-Chloro-4-ethanesulfonyl-benzoyl)-6-fluoro-naphthalen-2-yl]-acetic acid] |
| 3.2 nM | Cc1c(CC(=O)O)cc2ccc(F)cc2c1Cc1ccc(S(=O)(=O)c2ccccc2)cc1 [Example 10-3, [4-(4-Benzenesulfonyl-benzyl)-6-fluoro-3-methyl-naphthalen-2-yl]-acetic acid] |
| 3.7 nM | Cc1c(CC(=O)O)cc2ccc(Cl)cc2c1C(=O)c1ccc(S(C)(=O)=O)cc1 [Example 6-2, [6-Chloro-4-(4-methanesulfonyl-benzoyl)-3-methyl-naphthalen-2-yl]-acetic acid] |
| 2.7 nM | Cc1c(CC(=O)O)cc2ccc(F)cc2c1Cc1ccc(S(=O)(=O)Cc2ccccc2)cc1 [Example 11-3, [6-Fluoro-3-methyl-4-(4-phenylmethanesulfonyl-benzyl)-naphthalen-2-yl]-acetic acid] |
| 4.3 nM | CS(=O)(=O)c1ccc(C(=O)c2cc(CC(=O)O)cc3ccc(F)cc23)cc1 [Example 2-1, [6-Fluoro-4-(4-methanesulfonyl-benzoyl)-naphthalen-2-yl]-acetic acid] |
| 6 nM | CN(C)S(=O)(=O)c1ccc(Cc2cc(CC(=O)O)cc3ccc(F)cc23)cc1 [Example 8-8, [4-(4-Dimethylsulfamoyl-benzyl)-6-fluoro-naphthalen-2-yl]-acetic acid] |
| 3.1 nM | CCS(=O)(=O)c1ccc(Cc2c(C)c(CC(=O)O)cc3ccc(F)cc23)cc1 [Example 13-1, [4-(4-Ethanesulfonyl-benzyl)-6-fluoro-3-methyl-naphthalen-2-yl]-acetic acid] |
| 3.7 nM | Cc1cc(S(=O)(=O)N2CCOCC2)ccc1C(=O)c1cc(CC(=O)O)cc2ccc(F)cc12 [Example 2-23, {6-Fluoro-4-[2-methyl-4-(morpholine-4-sulfonyl)-benzoyl]-naphthalen-2-yl}-acetic acid] |
| 2.1 nM | Cc1c(CC(=O)O)cc2ccc(F)cc2c1C(=O)c1ccc(S(C)(=O)=O)cc1 [Example 6-1, [6-fluoro-4-(4-methanesulfonyl-benzoyl)-3-methyl-naphthalen-2-yl]-acetic acid] |
| 2.4 nM | CCS(=O)(=O)c1ccc(C(=O)c2c(C)c(CC(=O)O)cc3ccc(F)cc23)cc1 [Example 6-3, [4-(4-Ethanesulfonyl-benzoyl)-6-fluoro-3-methyl-naphthalen-2-yl]-acetic acid] |
| 6.7 nM | Cc1c(CC(=O)O)cc2ccc(F)cc2c1Cc1cccc(-c2nnnn2C)c1 [Example 10-7, (6-Fluoro-3-methyl-4-[3-(1-methyl-1H-tetrazol-5-yl)-benzyl]-naphthalen-2-yl]-acetic acid] |
| 6.1 nM | CS(=O)(=O)c1ccc(Cc2cc(CC(=O)O)cc3ccc(F)cc23)cc1 [Example 8-4, [6-Fluoro-4-(4-methanesulfonyl-benzyl)-naphthalen-2-yl]-acetic acid] |
| 8.5 nM | CS(=O)(=O)c1ccc(C(=O)c2cc(CC(=O)O)cc3ccc(F)cc23)c(Cl)c1 [Example 2-8, [4-(2-chloro-4-methanesulfonyl-benzoyl)-6-fluoro-naphthalen-2-yl]-acetic acid] |
